Measured values as given in patent publication US20170202847A1, “METHODS FOR THE TREATMENT OF TUMORS” (The University of North Carolina at Chapel Hill, priority 2014, published 2017).
Entries after “also recorded” stand apart in the source; their conditions may differ. Where two headings read alike, the source gives them in different places.

Key:
[1] = test system: B-RAF wildtype (HMCB) and B-RAF mutant (G361) cell lines; experiment: Colony formation of melanoma cell lines; type: cell-based; conditions: for colony formation: HMCB and G361
Description: (§1) See, FIG. 25A and FIG. 25B.

SKMEL119 melanoma cells = experiment: Invasion into collagen matrix; type: cell-based
[2] = mouse, in vivo
[3] = test system: RAS-driven, INK4a/Arf null melanoma GEMM (TRIA); experiment: RAS-driven, INK4a/Arf null melanoma GEMM (TRIA); type: in vivo
Experimental: FIG. 14 is a waterfall plot showing percent change in tumor volumes verses days of treatment in the TRIA GEM model of melanoma. Mice were treated with UNC2025, AZD6244, Carbo/Taxol or received no treatment.
After dose-finding studies in wild-type mice established an MTD, the inhibitor was given at 120 mpk/d in mouse chow.

[4] = test system: murine model of breast cancer (C3TAg); experiment: Murine model of breast cancer (C3TAg); type: in vivo; conditions: 120 mpk/d in chow
[5] = Dose-finding and tolerability in mice, drug in chow; type: in vivo; conditions: for MTD: mouse, in vivo
Experimental: […]. AZD6244 is a MEK inhibitor that was administered in mouse chow at a predicted dose of 37 mg/kg (MTD). UNC2025 was administered in chow at a predicted dose of 120 mg/kg (MTD). […]. AZD6244 is a MEK inhibitor that was dosed in mouse chow at a predicted dose of 37 mg/kg (MTD). UNC2025 was dosed in chow at a predicted dose of 120 mg/kg (MTD).
. Once daily, oral dosing inhibits the growth of Mer-expressing leukemia and NSCLC xenografts. […]. After dose-finding studies in wild-type mice established an MTD, the inhibitor was given at 120 mpk/d in mouse chow. […]. The overall response was 10% (partial responses and stable disease). There were no complete responses. […]. […] See, FIG. 16A and FIG. 16B.

[6] = test system: HMCB and G361 melanoma cell lines; experiment: Apoptosis of melanoma cell lines by flow cytometry (YO-PRO-1 iodide/propidium iodide); type: cell-based
Description: as §1

[7] = test system: Colo699 (Mer+, FGFR+) and H226 (Mer+, FGFR+) NSCLC cells; experiment: Soft agar colony formation of NSCLC cells, Mer TKI and FGFR TKI; type: cell-based; conditions: 14 days
Mer = biological target: T1, Mer (Homo sapiens, UniProt Q12866); experiment: Mer autophosphorylation in NSCLC cell lines by immunoblot; type: cell-based; conditions: numerous cell lines
T1 sequence (Q12866 21-999): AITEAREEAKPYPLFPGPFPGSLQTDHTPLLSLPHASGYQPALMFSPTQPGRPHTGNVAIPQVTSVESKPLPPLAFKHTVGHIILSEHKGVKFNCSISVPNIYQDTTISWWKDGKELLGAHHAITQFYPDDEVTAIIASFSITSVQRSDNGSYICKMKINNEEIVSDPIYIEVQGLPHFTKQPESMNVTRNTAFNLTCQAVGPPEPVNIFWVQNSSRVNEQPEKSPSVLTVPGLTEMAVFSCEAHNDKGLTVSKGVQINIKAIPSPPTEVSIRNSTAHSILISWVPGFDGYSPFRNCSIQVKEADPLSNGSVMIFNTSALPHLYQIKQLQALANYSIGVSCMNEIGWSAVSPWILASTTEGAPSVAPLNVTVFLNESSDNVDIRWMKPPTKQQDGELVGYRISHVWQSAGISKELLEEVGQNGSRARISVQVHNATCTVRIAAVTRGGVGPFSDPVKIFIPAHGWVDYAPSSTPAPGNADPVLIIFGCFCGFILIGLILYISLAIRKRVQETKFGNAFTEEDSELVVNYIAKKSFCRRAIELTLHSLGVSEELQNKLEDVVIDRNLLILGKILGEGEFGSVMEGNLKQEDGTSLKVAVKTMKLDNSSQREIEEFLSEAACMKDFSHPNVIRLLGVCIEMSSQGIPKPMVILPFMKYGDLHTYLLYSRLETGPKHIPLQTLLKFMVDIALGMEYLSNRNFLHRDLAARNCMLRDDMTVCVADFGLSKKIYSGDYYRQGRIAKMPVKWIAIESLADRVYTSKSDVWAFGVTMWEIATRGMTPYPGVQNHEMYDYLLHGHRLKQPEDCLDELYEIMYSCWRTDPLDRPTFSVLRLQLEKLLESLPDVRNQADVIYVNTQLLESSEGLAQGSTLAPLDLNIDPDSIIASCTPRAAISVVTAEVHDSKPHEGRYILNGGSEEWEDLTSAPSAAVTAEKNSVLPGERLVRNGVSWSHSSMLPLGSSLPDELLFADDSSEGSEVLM
Experimental: (§2) The effects of Mer TKI treatment on activation of Mer and related members of the TAM-family of kinases, Axl and Tyro3, and effects on downstream proliferative and pro-survival signaling pathways were analyzed by immunoblot. In addition, Mer TKI-mediated anti-tumor activity was determined in a panel of NSCLC cell lines using soft-agar and clonogenic assays. Cells were stained with YoPro-1-iodide and propidium iodide dyes and induction of apoptosis was determined using flow cytometry. Finally, a subcutaneous murine xenograft model was employed to determine therapeutic effects in vivo.

Colo699 cells = experiment: Subcutaneous murine xenograft model of NSCLC; type: in vivo
Experimental: FIG. 18A is a graph illustrating tumor volume verses days treated. Colo699 tumor cells were subcutaneously implanted in mice.
as §2

[8] = test system: PyVmT mammary gland tumor cells; experiment: Orthotopic PyVmT mammary gland tumor model in immunocompetent C57Bl/6 mice; type: in vivo
Experimental: FIG. 10A is an immunoblot showing the presence of Mer TK in J774 murine macrophage and absence in PyVmT murine mammary tumor cells. FIGS. 10B and 10C illustrate the results from an immune-competent orthotopic model of Mer-negative breast cancer. […] FIG. 10B is a graph showing tumor volume (mm^3) verses days post-tumor injection.
FIG. 21A is a timeline illustrating a mouse model using PyVmT cells. […] Mice were dosed from day −2 to day 28. At day zero, 1×10^6 PyVmT cells were implanted into the inguinal mammary fatpad of mice. Tumor volumes were measured at days 16, 19, 21, 23, 26 and 28. Day 28 was the end of the study. FIG. 21B is a graph illustrating tumor volume […] verses days post-tumor injection.
See, FIGS. 10A-10C and FIGS. 21A and 21B.

TRIA = TRIA tumors injected into NSG mice; type: in vivo; conditions: linear regression p<0.001
Experimental: FIG. 20A is a graph of tumor volume (mm^3) verses days. This is treatment of the intact GEMM. FIG. 20B is a graph illustrating the results from TRIA injected into NSG mice. The mice were then treated with no drug or UNC2025. […] In FIGS. 20A and 20B, both treated slopes were statistically significant compared to untreated slopes using linear regression p<0.001. FIG. 20C; Pten/Braf genetically engineered mice were treated with no drug or UNC2025. The graph illustrates tumor volumes (mm^3) verses days on treatment.

[9] = test system: MER-expressing ALL cell lines; experiment: Apoptosis and colony formation in methylcellulose of ALL cell lines; type: cell-based
[10] = test system: ERK, AKT, and STAT6 signaling downstream of MER; conditions: immunoblot
Experimental: Downstream signaling was evaluated by immunoblotting, and induction of apoptosis was determined by flow cytometry in cells stained with YO-PRO®-1 iodide and propidium iodide.

Pharmacokinetics in mice = conditions: mouse, in vivo
[11] = test system: MER-positive (Kasumi-1 and U937) AML cell lines; experiment: Apoptosis of MER-positive AML cell lines by flow cytometry; type: cell-based; conditions: vehicle 20±10%, p<0.01
Description: (§3) FLT-3 and MER tyrosine kinases have been previously identified as potential targets in the treatment of acute myeloid leukemia (AML). Expression of FLT-3 internal tandem duplication (ITD) occurs in ˜30-40% of AML patient samples and MER overexpression has been detected in ˜80-100%. In this example, a novel first-in-class small molecule inhibitor that has potent activity against both of these kinases and mediates growth inhibition or apoptosis of cell lines and patient myeloblasts is disclosed. […] See, FIGS. 4A-F.

[12] = test system: FLT3-ITD-positive (Molm-13 and MV4; 11) AML cell lines; experiment: Apoptosis of FLT3-ITD AML cell lines by flow cytometry; type: cell-based; conditions: vehicle 10±2%, p<0.001
Description: as §3

[13] = test system: MER-positive (Kasumi-1 and U937) AML cell lines; experiment: Soft agar colony formation of MER-positive AML cell lines; type: cell-based; conditions: vehicle = 100, p<0.01
Description: as §3

[14] = test system: primary AML patient samples (MER and/or FLT3-ITD positive); experiment: Primary AML patient samples: phosphorylation, apoptosis, colony formation in methylcellulose; type: cell-based, human
Description: as §3

AKT and STAT6 activation = AKT and STAT6 activation in AML cell lines; type: cell-based; conditions: short term exposure; cell lines expressing FLT3-ITD or MER
Description: as §3

[15] = compared to vehicle treated tumor-bearing mice

CCCCNc1ncc2c(-c3ccc(S(=O)(=O)N4CCOCC4)cc3)nn(C3CCC(O)CC3)c2n1 (stereo not drawn) [UNC1062]
colony formation [1]: reduced colony formation | invasion into collagen matrix (SKMEL119 melanoma cells): reduced invasion | oral bioavailability / pharmacokinetics [2]: orally bioavailable

CCCCNc1ncc2c(-c3ccc(CN4CCN(C)CC4)cc3)cn([C@H]3CC[C@H](O)CC3)c2n1 [MRX6313]
toxicity in the TRIA model ([3]; 120 mpk/d in chow): mild, well tolerated toxicity | complete responses (CRs) ([3]; TRIA, 8 mice): 3 | single agent activity ([3]; TRIA, 120 mpk/d in chow): pronounced single agent activity | percent change in tumor volumes, waterfall plot, ranking ([3]; versus AZD6244, Carbo/Taxol, no treatment): best response | single agent activity [4]: did not exhibit single agent activity | Mer pharmacodynamics marker (platelet aggregation) ([5]; 120 mpk/d in mouse chow): inhibition of second phase platelet aggregation | weight loss ([5]; 120 mpk/d in mouse chow): did not cause weight loss | MTD ([5]; oral, administered in chow, read-out: MTD, predicted dose in mouse chow): 120 mg/kg | concentration resulting in an almost complete block in colony formation ([1]; B-RAF wild-type and B-RAF mutant cell lines): ≥ 300 nM | colony formation [1]: reduced colony growth | apoptosis [6]: induced apoptosis | colony formation in soft agar [7]: inhibited | concentrations that blocked Mer autophosphorylation (Mer): sub-micromolar | tumor volume (Colo699 cells): significant decrease in tumor volume | RNA-sequence data on immune cells ([8]; 3 mg/kg twice daily by oral gavage): increases pro-inflammatory cytokines in CD11b^+ cells and activates CD8^+ T cell effector function | primary tumor growth reduction compared to vehicle ([8]; after four weeks of daily treatment): two-fold | reduction of serum IL-4 level [8, 15]: 30% | reduction of serum IL-10 level [8, 15]: 20% | tumor volumes versus control (TRIA): significantly reduced | apoptosis and colony-formation in methylcellulose [9]: induction of apoptosis and reduced colony-formation | downstream signaling [10]: abrogates signaling downstream of MER | oral bioavailability / pharmacokinetics (Pharmacokinetics in mice): orally bioavailable; also recorded: favorable pharmacokinetics | median survival (B-ALL xenograft; days after inoculation with tumor cells, vehicle 27 days, p<0.0001): 70 days | tumor burden (B-ALL xenograft; minimal residual disease model): dose dependent reduction in tumor burden

Cn1cnc2c(F)c(Nc3ccc(Br)cc3Cl)c(C(=O)NOCCO)cc21 [AZD6244, reference compound]
MTD [5]: 37 mg/kg

COc1cc(CCc2cc(NC(=O)c3ccc(N4CC(C)NC(C)C4)cc3)n[nH]2)cc(OC)c1 (stereo not drawn) [AZD-4547, reference compound]
colony formation in soft agar [7]: inhibited

CCCCNc1ncc2c(-c3ccc(S(=O)(=O)N4CCOCC4)cc3)cn(C3CCC(O)CC3)c2n1 (stereo not drawn) [UNC1666]
apoptotic cells [11]: 66±10% | apoptotic cells [12]: 90±6% | relative colony counts [13]: 34±15 | Mer and Flt3 kinase phosphorylation and downstream signaling ([14]; leukemic blasts from a patient with AML, 50, 100 and 300 nM): abrogates | colony formation in methylcellulose ([14]; six primary patient samples): near complete inhibition of colony formation | induction of apoptosis ([14]; six primary patient samples): dose-dependent induction of apoptosis | AKT and STAT6 activation (AKT and STAT6 activation): dose-dependent decrease
